US4587045A, “Intermediates for preparing octapeptide vasopressin antagonists” (SmithKline Beckman Corporation, priority 1985, dated 1986)
*1 amine or outer side, *2 acyl side, *3 side chain or, on linkers, in order; H or OH if unused. Where a SMILES comes first, the peptide text is derived from it. Bridges are numbered along the chain shown (N, C = ends). Where no end group is shown, it is not given here. [ ]: non-standard residue; d: D form. The star is where a group is joined. X1 = O=C(CC1(S[*:2])CCCCC1)[*:1]; Abu = CC[C@H](N)C(=O)O; NHPr = CCCN*

What was measured:
[1] = target: T1, vasopressin receptors (^3 H-vasopressin binding) (Sus scrofa, UniProt P32307); experiment: Binding assay, ^3 H-vasopressin, hog kidney membranes; parameters: species or system Pig; conditions: for Kb: KB = IC50/(1+L/KD), ^3 H-vasopressin binding, hog kidney membranes, read-out: anti-ADH activity in vitro (Pig) KB
T1 construct: average KD value determined on 3 preparations of hog kidney membranes; from tissue; host or cells: hog kidney medullary membranes
T1 sequence (P32307 whole entry): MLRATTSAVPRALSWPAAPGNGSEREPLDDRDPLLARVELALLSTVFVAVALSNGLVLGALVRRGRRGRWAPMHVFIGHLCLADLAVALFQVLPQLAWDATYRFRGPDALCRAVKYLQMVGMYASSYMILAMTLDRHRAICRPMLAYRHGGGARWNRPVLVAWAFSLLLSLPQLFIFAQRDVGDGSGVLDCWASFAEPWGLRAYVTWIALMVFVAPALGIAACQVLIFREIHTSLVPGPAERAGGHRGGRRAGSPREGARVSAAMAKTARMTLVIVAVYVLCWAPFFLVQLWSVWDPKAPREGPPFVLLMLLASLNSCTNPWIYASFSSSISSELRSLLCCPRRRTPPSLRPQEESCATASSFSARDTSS
Procedure: (§1) Details of the in vitro protocols are in F. L. Stassen et al., J. of Pharm. Exp. Ther. 233, 50-54 (1982) but the calculations of cyclase activity and binding potential at the receptor site are as follows:
Test Procedure for Binding Assay:
In each experiment, the amount of ^3 H-vasopressin bound in the absence and in the presence of an excess of vasopressin (7.5×10^-6 M) is measured in triplicate. These values represent total and non-specific binding, respectively. The KB of a compound is derived from the equation for competitive inhibition: KB =IC50 /(1+L/KD), where IC50 is the concentration required for 50% inhibition of specific ^3 H-vasopressin binding, L is the concentration of the ligand, and KD is the dissociation constant of ^3 H-vasopressin (KD =3.6×10^-9 M; 1 SD=0.4×10^-9 M). This is the average KD value determined on 3 preparations of hog kidney membranes.

[2] = target: vascular pressor sites (V1 -receptors) (Rattus norvegicus, UniProt P30560)
Chain of vascular pressor sites (V1 -receptors) (P30560 whole entry): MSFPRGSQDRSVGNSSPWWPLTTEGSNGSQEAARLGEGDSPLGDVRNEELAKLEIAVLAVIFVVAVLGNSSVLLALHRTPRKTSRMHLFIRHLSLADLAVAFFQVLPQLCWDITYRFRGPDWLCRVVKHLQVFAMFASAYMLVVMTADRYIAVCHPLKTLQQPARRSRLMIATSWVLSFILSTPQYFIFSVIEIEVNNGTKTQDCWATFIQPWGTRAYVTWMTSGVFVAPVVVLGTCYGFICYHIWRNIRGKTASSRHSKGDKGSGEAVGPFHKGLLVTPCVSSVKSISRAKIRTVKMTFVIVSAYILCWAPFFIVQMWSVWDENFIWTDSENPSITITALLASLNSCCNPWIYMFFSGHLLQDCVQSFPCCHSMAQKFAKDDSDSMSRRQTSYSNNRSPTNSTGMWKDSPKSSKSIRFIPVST
Text: The second group of vasopressin receptor sites are the vascular pressor sites (V1 -receptors) located within the cardiovascular system itself.

[3] = compared with the respective parent compound; cited from earlier work
[4] = system: vasopressin receptors (V2 -receptors); experiment: Conscious hydropenic squirrel monkey test (anti-ADH activity); assay type: in vivo
Procedure: Food and water are removed from male rats approximately 18 hours prior to testing. Animals are housed 4 per metabolism cage. At 0 hour, the test compound is administered intraperitoneally to the test group and an equivalent volume of vehicle is administered to both control groups (fasted and non-fasted). Urine volume and osmolality are measured every hour for 4 hours. Test values are recorded as ml of urine excreted (cumulative), mEq/rat electrolyte excreted, mg/rat urea excreted, and osmolality in milli-Osmoles/kg H2 O. A tolerance test is used to determine significance. […] The hydropenic monkey protocol is similar.

[5] = target: T2, vasopressin receptors (V2 -receptors) (Rattus norvegicus, UniProt Q00788); experiment: Hydropenic rat protocol (anti-ADH activity in vivo); conditions: estimated dose of peptide delivered ip which reduces Uosm from hydropenic levels to 300 mOsmoles/kg H2O
T2 construct: in vivo, in the hydropenic rat or the hydropenic monkey; from tissue; host or cells: whole animal (male hydropenic rat); renal receptors in situ
T2 sequence (Q00788 whole entry): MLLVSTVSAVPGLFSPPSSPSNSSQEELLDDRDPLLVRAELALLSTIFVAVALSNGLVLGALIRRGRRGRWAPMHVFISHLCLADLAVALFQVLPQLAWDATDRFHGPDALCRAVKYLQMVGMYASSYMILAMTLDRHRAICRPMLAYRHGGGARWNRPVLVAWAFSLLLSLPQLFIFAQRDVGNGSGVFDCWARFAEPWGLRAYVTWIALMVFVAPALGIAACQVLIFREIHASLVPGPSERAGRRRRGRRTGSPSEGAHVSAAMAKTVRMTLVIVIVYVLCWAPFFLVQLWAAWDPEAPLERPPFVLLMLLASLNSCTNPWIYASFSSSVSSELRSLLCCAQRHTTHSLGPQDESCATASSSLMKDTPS
Procedure: as §1
Food and water are removed from male rats approximately 18 hours prior to testing. Animals are housed 4 per metabolism cage. At 0 hour, the test compound is administered intraperitoneally to the test group and an equivalent volume of vehicle is administered to both control groups (fasted and non-fasted). Urine volume and osmolality are measured every hour for 4 hours. Test values are recorded as ml of urine excreted (cumulative), mEq/rat electrolyte excreted, mg/rat urea excreted, and osmolality in milli-Osmoles/kg H2 O. A […] is used to determine significance. ED300 is defined as the dose of compound (μg/kg) required to lower urine osmolality to 300 m-Osmoles/kg. ED500 is defined as the dose of compound (μg/kg) required to lower urine osmolality to 500 m-Osmoles/kg. The hydropenic monkey protocol is similar.

[6] = target: vasopressin stimulated adenylate cyclase activity; experiment: Assay of adenylate cyclase activity, kidney medullary membrane; assay type: biochemical; conditions: pig kidney medullary membrane, read-out: anti-ADH activity in vitro (Pig) Ki
Procedure: as §1
Test Procedure for Assay of Adenylate Cyclase Activity:
In each experiment the amount of ^32 P/cAMP formed in the absence of medullary membrane is determined (blank). The blank value is subtracted from all experimental data. The compound is tested for its effect on basal adenylate cyclase activity and/or on vasopressin stimulated activity. Each determination is carried out in triplicate. The Ka value is derived from a Lineweaver-Burke plot. Rel. Vmax =(Vmax drug/Vmax vasopressin)×100. Ki =I/[(Ka'/Ka)-1] where I is the concentration of the antagonist, and Ka' and Ka are the concentrations of vasopressin required to give half-maximal activity of adenylate cyclase in the presence and absence of antagonist, respectively.

[7] = agonist series; cited from earlier work
[8] = reported by Barth; cited from earlier work
[9] = reported by Barth; cited from earlier work; remark: listed apart in the source

CCCNC(=O)[C@H](CCCNC(=N)N)NC(=O)[C@@H]1CCCN1C(=O)[C@@H]1CSSC2(CCCCC2)CC(=O)N[C@H](CC(C)C)C(=O)N[C@@H](Cc2ccccc2)C(=O)N[C@@H](C(C)C)C(=O)N[C@@H](CC(N)=O)C(=O)N1 [Example 4] ([dL]FVNCPR-NHPr; linker N-5 via X1)
inhibition at 10 µM ([1]; at 10^-5 M, read-out: Kbind, inhibition): 12.1%

CCOc1ccc(C[C@H]2NC(=O)CC3(CCCCC3)SSC[C@@H](C(=O)N3CCC[C@H]3C(=O)N[C@@H](CCCNC(=N)N)C(N)=O)NC(=O)[C@H](CC(N)=O)NC(=O)[C@H](C(C)C)NC(=O)[C@H](Cc3ccccc3)NC2=O)cc1 [Compound 5, [1-(β-mercapto-β,β-cyclopentamethylenepropionicacid)-2-(O-ethyl-D-tyrosine)-4-valine-8-arginine-9-desglycine]vasopressin] ([dY](Et)FVNCPR-NH2; linker N-5 via X1)
Kb [2]: 3.98 nM
pA2, inhibition of vasopressin-induced vasoconstriction ([2]; in vivo): 7.71
Kb [1]: 7.8 nM

CC(C)[C@@H]1NC(=O)[C@H](Cc2ccccc2)NC(=O)[C@@H](Cc2ccc(O)cc2)NC(=O)CC2(CCCCC2)SSC[C@@H](C(=O)N2CCC[C@H]2C(=O)N[C@@H](CCCNC(=N)N)C(N)=O)NC(=O)[C@H](CC(N)=O)NC1=O [Compound 2, [1-(β-mercapto-β,β-cyclopentamethylenepropionic acid)-2-D-tyrosine-4-valine-8-arginine-9-desglycine]vasopressin] ([dY]FVNCPR-NH2; linker N-5 via X1)
Kb [1]: 65 nM

CCOc1ccc(C[C@H]2NC(=O)CC3(CCCCC3)SSC[C@@H](C(=O)N3CCC[C@H]3C(=O)N[C@@H](CCCNC(=N)N)C(N)=O)NC(=O)[C@H](CC(N)=O)NC(=O)[C@H](CC)NC(=O)[C@H](Cc3ccccc3)NC2=O)cc1 [Compound 6] ([dY](Et)F[Abu]NCPR-NH2; linker N-5 via X1)
Kb [1]: 18 nM

des-lysine^8 -desglycinamide^9 -vasopressin
activity of the parent compound retained [3]: little

CCOc1ccc(C[C@H]2NC(=O)CC3(CCCCC3)SSC[C@@H](C(=O)N3CCC[C@H]3C(=O)N[C@@H](CCCNC(=N)N)C(=O)NCC(N)=O)NC(=O)[C@H](CC(N)=O)NC(=O)[C@H](C(C)C)NC(=O)[C@H](Cc3ccccc3)NC2=O)cc1 [Compound 4] ([dY](Et)FVNCPRG-NH2; linker N-5 via X1)
ED300, dose required to decrease urine osmolality to 300M Osm/kg water [4]: 33.1 nmol/kg
anti-ADH activity in vivo (Rat) ED300 [5]: 9.9 µg/kg
Ki [6]: 5.9 nM

desglycine^9 -oxytocin (CYIQNCPL; disulfide 1-6 (inferred); ends not checked; UniProt P01178 20-28, looked up, variant G9*) [literature agonist analog, B. Berde et al]
effect on blood pressure compared with oxytocin [7]: opposite effect
activity of the parent compound retained [3]: little

CC(C)[C@@H]1NC(=O)[C@H](Cc2ccccc2)NC(=O)[C@@H](Cc2ccc(O)cc2)NC(=O)CC2(CCCCC2)SSC[C@@H](C(=O)N2CCC[C@H]2C(=O)N[C@@H](CCCNC(=N)N)C(=O)NCC(N)=O)NC(=O)[C@H](CC(N)=O)NC1=O [Compound 1] ([dY]FVNCPRG-NH2; linker N-5 via X1)
anti-ADH activity in vivo (Rat) ED300 [5]: 32 µg/kg
Ki [6]: 30 nM

des-glycinamide^9 -vasopressin
CNS activity [8]: has CNS activity
antidiuretic or uterotonic activity [9]: practically no
activity of the parent compound retained [3]: little

CC(C)[C@@H]1NC(=O)[C@H](Cc2ccccc2)NC(=O)[C@@H](Cc2ccc(O)cc2)NC(=O)CC2(CCCCC2)SSC[C@@H](C(=O)N2CCC[C@H]2C(=O)N[C@@H](CCCNC(=N)N)C(=O)O)NC(=O)[C@H](CC(N)=O)NC1=O [Compound 3, [1-(β-mercapto-β,β-cyclopentamethylenepropionic acid)-2-D-tyrosine-4-valine-8-arginine-9-desglycinamide]vasopressin] ([dY]FVNCPR-OH; linker N-5 via X1)
Kb [1]: 350 nM
